Laboratory results published in patent EP0353754A2, “Radioactively marked benzodiazepin derivates” (F. HOFFMANN-LA ROCHE AG, priority 1988, dated 1990).
Read-outs that look alike come from different tables or passages of the source.

Assay: Organ distribution of injected radioactivity in rats after I.V. injection
Type: in vivo, Ratten (weiblich, Wistar, spf)
Settings: Ratte; for tissue uptake at 2 min / tissue uptake at 10 min / tissue uptake at 20 min / tissue uptake at 40 min / tissue uptake at 1 h / tissue uptake at 6 h / tissue uptake at 15 h: rat, iv, read-out: Prozent der injizierten Aktivität pro Gramm des entsprechenden Organs; for tissue uptake at 1 h: 60′
Method: Es werden je 3 Ratten (weiblich, Wistar, spf) zu sieben verschiedenen Zeitpunkten (2′, 10′, 20′, 40′, 1h, 6h, 15h) gemessen. Das Gewicht der Tiere lag zwischen 113 und 144 g. Die Fütterung erfolgte ad libitum. Die I.V. injizierten Dosen variierten von 184 bis 355 µCi in jeweils 0,2 ml.

CCOC(=O)c1ncn2c1CN(C)C(=O)c1c([123I])cccc1-2 [Aethyl-7-¹²³Jod-5,6-dihydro-5-methyl-6-oxo-4H-imidazo[1,5-a][1,4]benzodiazepin-3-carboxylat]
Prozent der injizierten Aktivität in den entsprechend Organen (Totalkörper, 15h): 2,80 Prozent der injizierten Aktivität | tissue uptake at 2 min (bladder, Blase): 0.59 %ID/g | tissue uptake at 10 min (bladder, Blase): 1.07 %ID/g | tissue uptake at 20 min (bladder, Blase): 0.69 %ID/g | tissue uptake at 40 min (bladder, Blase): 0.24 %ID/g | tissue uptake at 1 h (bladder, Blase): 0.42 %ID/g | tissue uptake at 6 h (bladder, Blase): 0.57 %ID/g | tissue uptake at 15 h (bladder, Blase, 15h): 0.023 %ID/g | tissue uptake at 2 min (blood, Blut): 0.7 %ID/g | tissue uptake at 10 min (blood, Blut): 0.87 %ID/g | tissue uptake at 20 min (blood, Blut): 0.46 %ID/g | tissue uptake at 40 min (blood, Blut): 0.17 %ID/g | tissue uptake at 1 h (blood, Blut): 0.11 %ID/g | tissue uptake at 6 h (blood, Blut): 0.04 %ID/g | tissue uptake at 15 h (blood, Blut, 15h): 0.013 %ID/g | tissue uptake at 2 min (brain, Hirn): 2.12 %ID/g | tissue uptake at 10 min (brain, Hirn): 3.22 %ID/g | tissue uptake at 20 min (brain, Hirn): 2.99 %ID/g | tissue uptake at 40 min (brain, Hirn): 2.7 %ID/g | tissue uptake at 1 h (brain, Hirn): 1.8 %ID/g | tissue uptake at 6 h (brain, Hirn): 0.05 %ID/g | tissue uptake at 15 h (brain, Hirn, 15h): 0.001 %ID/g | tissue uptake at 2 min (heart, Herz): 0.86 %ID/g | tissue uptake at 10 min (heart, Herz): 0.66 %ID/g | tissue uptake at 20 min (heart, Herz): 0.3 %ID/g | tissue uptake at 40 min (heart, Herz): 0.1 %ID/g | tissue uptake at 1 h (heart, Herz): 0.06 %ID/g | tissue uptake at 6 h (heart, Herz): 0.02 %ID/g | tissue uptake at 15 h (heart, Herz, 15h): 0.007 %ID/g | tissue uptake at 2 min (intestine, Darm): 0.75 %ID/g | tissue uptake at 10 min (intestine, Darm): 1.1 %ID/g | tissue uptake at 20 min (intestine, Darm): 1.73 %ID/g | tissue uptake at 40 min (intestine, Darm): 2.02 %ID/g | tissue uptake at 1 h (intestine, Darm): 1.97 %ID/g | tissue uptake at 6 h (intestine, Darm): 1.55 %ID/g | tissue uptake at 15 h (intestine, Darm, 15h): 0.143 %ID/g | tissue uptake at 2 min (Femur): 0.54 %ID/g | tissue uptake at 10 min (Femur): 0.45 %ID/g | tissue uptake at 20 min (Femur): 0.24 %ID/g | tissue uptake at 40 min (Femur): 0.1 %ID/g | tissue uptake at 1 h (Femur): 0.07 %ID/g | tissue uptake at 6 h (Femur): 0.02 %ID/g | tissue uptake at 15 h (Femur, 15h): 0.007 %ID/g | tissue uptake at 2 min (kidney, Nieren): 2.68 %ID/g | tissue uptake at 10 min (kidney, Nieren): 7.06 %ID/g | tissue uptake at 20 min (kidney, Nieren): 5.26 %ID/g | tissue uptake at 40 min (kidney, Nieren): 1.35 %ID/g | tissue uptake at 1 h (kidney, Nieren): 0.68 %ID/g | tissue uptake at 6 h (kidney, Nieren): 0.03 %ID/g | tissue uptake at 15 h (kidney, Nieren, 15h): 0.01 %ID/g | tissue uptake at 2 min (liver, Leber): 2.38 %ID/g | tissue uptake at 10 min (liver, Leber): 5.66 %ID/g | tissue uptake at 20 min (liver, Leber): 2.62 %ID/g | tissue uptake at 40 min (liver, Leber): 0.58 %ID/g | tissue uptake at 1 h (liver, Leber): 0.19 %ID/g | tissue uptake at 6 h (liver, Leber): 0.02 %ID/g | tissue uptake at 15 h (liver, Leber, 15h): 0.016 %ID/g | tissue uptake at 2 min (lung, Lunge): 1.22 %ID/g | tissue uptake at 10 min (lung, Lunge): 0.87 %ID/g | tissue uptake at 20 min (lung, Lunge): 0.44 %ID/g | tissue uptake at 40 min (lung, Lunge): 0.15 %ID/g | tissue uptake at 1 h (lung, Lunge): 0.1 %ID/g | tissue uptake at 6 h (lung, Lunge): 0.03 %ID/g | tissue uptake at 15 h (lung, Lunge, 15h): 0.011 %ID/g | tissue uptake at 2 min (muscle, Muskel): 0.68 %ID/g | tissue uptake at 10 min (muscle, Muskel): 0.42 %ID/g | tissue uptake at 20 min (muscle, Muskel): 0.2 %ID/g | tissue uptake at 40 min (muscle, Muskel): 0.09 %ID/g | tissue uptake at 1 h (muscle, Muskel): 0.04 %ID/g | tissue uptake at 6 h (muscle, Muskel): 0.01 %ID/g | tissue uptake at 15 h (muscle, Muskel, 15h): 0.003 %ID/g | tissue uptake at 2 min (ovary, Ovar): 0.88 %ID/g | tissue uptake at 10 min (ovary, Ovar): 0.73 %ID/g | tissue uptake at 20 min (ovary, Ovar): 0.53 %ID/g | tissue uptake at 40 min (ovary, Ovar): 0.22 %ID/g | tissue uptake at 1 h (ovary, Ovar): 0.16 %ID/g | tissue uptake at 6 h (ovary, Ovar): 0.03 %ID/g | tissue uptake at 15 h (ovary, Ovar, 15h): 0.011 %ID/g | tissue uptake at 2 min (spleen, Milz): 0.6 %ID/g | tissue uptake at 10 min (spleen, Milz): 0.53 %ID/g | tissue uptake at 20 min (spleen, Milz): 0.29 %ID/g | tissue uptake at 40 min (spleen, Milz): 0.14 %ID/g | tissue uptake at 1 h (spleen, Milz): 0.07 %ID/g | tissue uptake at 6 h (spleen, Milz): 0.02 %ID/g | tissue uptake at 15 h (spleen, Milz, 15h): 0.01 %ID/g | tissue uptake at 2 min (stomach, Magen): 0.19 %ID/g | tissue uptake at 10 min (stomach, Magen): 0.41 %ID/g | tissue uptake at 20 min (stomach, Magen): 0.35 %ID/g | tissue uptake at 40 min (stomach, Magen): 0.27 %ID/g | tissue uptake at 1 h (stomach, Magen): 0.48 %ID/g | tissue uptake at 6 h (stomach, Magen): 0.73 %ID/g | tissue uptake at 15 h (stomach, Magen, 15h): 0.08 %ID/g | tissue uptake at 2 min (thyroid, Schilddrüse): 0.6 %ID/g | tissue uptake at 10 min (thyroid, Schilddrüse): 0.54 %ID/g | tissue uptake at 20 min (thyroid, Schilddrüse): 1.22 %ID/g | tissue uptake at 40 min (thyroid, Schilddrüse): 0.08 %ID/g | tissue uptake at 1 h (thyroid, Schilddrüse): 0.06 %ID/g | tissue uptake at 6 h (thyroid, Schilddrüse): 0.03 %ID/g | tissue uptake at 15 h (thyroid, Schilddrüse, 15h): 0.007 %ID/g
